In patent US11725036B2, “Modified lipidated relaxin B chain peptides and their therapeutic use” (Sanofi, priority 2018, dated 2023):
Converted amounts (≈) assume the structure as drawn. Like-named read-outs stand apart in the source and are kept apart here. Starred links: 1 amine or outer side, 2 acyl side, 3 side chain; linkers in the order of their positions; H or OH if unused. Non-standard residues stand in square brackets, D forms with d. Residues, ends and D or L forms follow the SMILES beside them. Groups on a side chain read outwards from the residue. *: point of attachment. X5 = CCCCCCCCCCCCCCCC(=O)N[C@@H](CCC(=O)N[C@@H](CCC(=O)N[C@@H](CCC(=O)NCCCOCCOCCOCCCNC(=O)CCC(=O)NCCCOCCOCCOCCCNC(=O)CCC(=O)NCCCOCCOCCOCCCNC(=O)CCC(=O)NCCCOCCOCCOCCCN*)C(=O)O)C(=O)O)C(=O)O; X1 = CCCCCCCCCCCCCCCC(=O)N[C@@H](CCC(=O)N[C@@H](CCC(=O)N[C@@H](CCC(=O)NCCCOCCOCCOCCCNC(=O)CCC(=O)NCCCOCCOCCOCCCNC(=O)CCC(=O)NCCCOCCOCCOCCCN*)C(=O)O)C(=O)O)C(=O)O; Suc = O=C(CCC(=O)[*:2])[*:1]; Aib = CC(C)(N)C(=O)O

Key:
RXFP1 = biological target: T1, RXFP1 (Homo sapiens, UniProt Q9HBX9); test: OVCAR5 cAMP assay (HTRF); type: cell-based; conditions: for EC50: OVCAR 5 cells expressing endogenous RXFP1, cAMP readout; for Emax: OVCAR 5 cells, maximal cAMP relative to H2-relaxin
T1 construct: OVCAR5 cells expressing endogenous RXFP1; endogenous in cells; host or cells: OVCAR5
T1 sequence (Q9HBX9 1-757): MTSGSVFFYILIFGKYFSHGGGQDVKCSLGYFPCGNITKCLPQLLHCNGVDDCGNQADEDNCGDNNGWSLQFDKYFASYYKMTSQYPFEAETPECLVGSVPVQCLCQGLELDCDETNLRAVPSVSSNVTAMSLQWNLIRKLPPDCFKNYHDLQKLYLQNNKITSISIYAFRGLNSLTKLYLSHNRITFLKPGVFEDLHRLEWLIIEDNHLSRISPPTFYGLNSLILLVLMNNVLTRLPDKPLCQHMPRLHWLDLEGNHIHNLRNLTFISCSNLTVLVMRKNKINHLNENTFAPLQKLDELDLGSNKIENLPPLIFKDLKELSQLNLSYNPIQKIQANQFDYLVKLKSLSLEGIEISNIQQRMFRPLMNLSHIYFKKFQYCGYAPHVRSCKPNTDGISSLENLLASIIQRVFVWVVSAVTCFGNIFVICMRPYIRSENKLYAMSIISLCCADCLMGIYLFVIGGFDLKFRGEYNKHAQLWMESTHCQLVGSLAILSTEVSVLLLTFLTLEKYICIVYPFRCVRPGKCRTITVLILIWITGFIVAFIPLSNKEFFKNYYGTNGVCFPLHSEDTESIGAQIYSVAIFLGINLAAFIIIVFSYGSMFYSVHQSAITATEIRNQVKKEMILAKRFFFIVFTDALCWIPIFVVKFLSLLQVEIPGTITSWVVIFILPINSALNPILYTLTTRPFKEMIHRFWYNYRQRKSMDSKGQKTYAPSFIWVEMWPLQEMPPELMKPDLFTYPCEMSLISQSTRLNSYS
In short: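 Peptide agonism measured as intracellular cAMP (HTRF) after 30 min at 37° C in serum-free medium, following 40 min 1 mM IBMX preincubation of OVCAR5 cells. Nonlinear regression gave EC50; Emax % = 100 × compound maximal cAMP / H2-relaxin maximal cAMP.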

[1] = Solubility testing in buffer; type: physicochemical; conditions: target solubility 10.0 mg/ml
Experimental: Prior to the testing of solubility of a peptide batch, its purity (HPLC-UV) was determined.
Acetate Buffer 50 mM pH4.5: 0.75 g C2H3C02Na,3H2O (Sigma S7545)+0.35 ml CH3CO2H 100% solution dissolved in Millipore water, adjusted to pH with diluted (1:1) CH3CO2H and diluted to 250 ml with Millipore water.
In a 4 ml Ependorph vial, an accurately weighed sample of compound was diluted in study media to obtain target concentration of 2, 6 or 10 mg/ml of pure compound. The sample vials were shacked (rock 'roll shaker) for ˜19 h. 300 μL aliquots were filtered through a Millipore “Solvinert” plate (0.45 μm-PTFE hydrophilic).
pH was measured with a micro electrode
Waters Acquity UPLC System with DAD detector
Column: Waters Peptide Column CSH C18 (130 Å; 1.7 μm; 50*2.1 mm)
Column temperature: 60° C.
Full loop (about 5 μL)—overfill factor 5
Weak et Strong wash: H2O/ACN (75/25; V/V); Seal wash: H2O/IsOH (95/5; V/V). Mobile phase:
Solvent A: 0.05% TFA in H2O; Solvent B: 0.035% TFA in CH3CN
Gradient: from 0 to 12 min B=2% to 60%, from 12 to 14 min B=60% to 100%. Column washing 100% B 1 min, column equilibration 2% B 2.5 min.
UV detector: wavelength: 220 nm.

[2] = acetate buffer 50 mM pH 4.5, read-out: Solubility Acetate buffer pH 4.5
[3] = phosphate buffer 50 mM pH 7.4, read-out: Solubility phosphate buffer pH 7.4

SMILES | EC50 (RXFP1) [nM] | Emax (RXFP1) [%] | solubility [1, 2] [µg/mL] | solubility [1, 3] [µg/mL]
CCCCCCCCCCCCCCCC(=O)N[C@@H](CCC(=O)N[C@@H](CCC(=O)N[C@@H](CCC(=O)NCCCOCCOCCOCCCNC(=O)CCC(=O)NCCCOCCOCCOCCCNC(=O)CCC(=O)NCCCOCCOCCOCCCNC(=O)CCC(=O)NCCCC[C@H](NC(=O)CNC(=O)[C@H](CCC(=O)O)NC(=O)[C@@H](NC(=O)C(C)(C)NC(=O)[C@@H](NC(=O)[C@H](CCCCNC(C)=O)NC(=O)[C@H](C)NC(=O)[C@H](CCCNC(=N)N)NC(=O)[C@@H](NC(=O)[C@H](CCCCN)NC(=O)[C@H](CCC(=O)O)NC(=O)[C@H](CCCNC(=N)N)NC(=O)CNC(=O)[C@H](CCC(=O)O)NC(=O)[C@H](CC(C)C)NC(C)=O)C(C)C)[C@@H](C)CC)[C@@H](C)CC)C(=O)N[C@@H](CO)C(=O)N[C@H](C(=O)N[C@@H](Cc1c[nH]c2ccccc12)C(=O)N[C@@H](CO)C(=O)NC(C)(C)C(=O)N[C@@H](CCCNC(=N)N)C(=O)N[C@@H](CCCCN)C(=O)N[C@@H](CCCCNC(C)=O)C(N)=O)[C@@H](C)O)C(=O)O)C(=O)O)C(=O)O [compound 70] (Ac-LEGREKVRAK(Ac)I[Aib]IEGK([Suc-X1])STWS[Aib]RKK(Ac)-NH2) | 1.34 | 94 | 8240 (≈ 1860 µM) | 9680 (≈ 2190 µM)
CCCCCCCCCCCCCCCC(=O)N[C@@H](CCC(=O)N[C@@H](CCC(=O)N[C@@H](CCC(=O)NCCCOCCOCCOCCCNC(=O)CCC(=O)NCCCOCCOCCOCCCNC(=O)CCC(=O)NCCCOCCOCCOCCCNC(=O)CCC(=O)NCCCC[C@H](NC(=O)CNC(=O)[C@H](CCC(=O)O)NC(=O)C(C)(C)NC(=O)C(C)(C)NC(=O)[C@@H](NC(=O)[C@H](CCCCNC(C)=O)NC(=O)[C@H](C)NC(=O)[C@H](CCCNC(=N)N)NC(=O)[C@@H](NC(=O)[C@H](CCCCN)NC(=O)[C@H](CCC(=O)O)NC(=O)[C@H](CCCNC(=N)N)NC(=O)CNC(=O)[C@H](CCC(=O)O)NC(=O)[C@H](CC(C)C)NC(C)=O)C(C)C)[C@@H](C)CC)C(=O)N[C@@H](CO)C(=O)N[C@H](C(=O)N[C@@H](Cc1c[nH]c2ccccc12)C(=O)N[C@@H](CO)C(=O)NC(C)(C)C(=O)N[C@@H](CCCNC(=N)N)C(=O)N[C@@H](C)C(=O)N[C@@H](CCCCN)C(N)=O)[C@@H](C)O)C(=O)O)C(=O)O)C(=O)O [compound 71] (Ac-LEGREKVRAK(Ac)I[Aib][Aib]EGK([Suc-X1])STWS[Aib]RAK-NH2) | 0.36 | 95 | 8280 (≈ 1930 µM) | 8770 (≈ 2040 µM)
CCCCCCCCCCCCCCCC(=O)N[C@@H](CCC(=O)N[C@@H](CCC(=O)N[C@@H](CCC(=O)NCCCOCCOCCOCCCNC(=O)CCC(=O)NCCCOCCOCCOCCCNC(=O)CCC(=O)NCCCOCCOCCOCCCNC(=O)CCC(=O)NCCCC[C@H](NC(=O)CNC(=O)[C@H](CCC(=O)O)NC(=O)C(C)(C)NC(=O)C(C)(C)NC(=O)[C@@H](NC(=O)[C@H](CCCCNC(C)=O)NC(=O)[C@H](C)NC(=O)[C@H](CCCNC(=N)N)NC(=O)[C@@H](NC(=O)[C@H](CCCCN)NC(=O)[C@H](CCC(=O)O)NC(=O)[C@H](CCCNC(=N)N)NC(=O)CNC(=O)[C@H](CCC(=O)O)NC(=O)[C@H](CC(C)C)NC(C)=O)C(C)C)[C@@H](C)CC)C(=O)N[C@@H](CO)C(=O)N[C@H](C(=O)N[C@@H](Cc1ccccc1)C(=O)NC(C)(C)C(=O)N[C@@H](CCCNC(=N)N)C(=O)N[C@@H](CCCNC(=N)N)C(=O)N[C@@H](C)C(=O)N[C@@H](CCCCNC(C)=O)C(N)=O)[C@@H](C)O)C(=O)O)C(=O)O)C(=O)O [compound 72] (Ac-LEGREKVRAK(Ac)I[Aib][Aib]EGK([Suc-X1])STF[Aib]RRAK(Ac)-NH2) | 0.56 | 91 | 8250 (≈ 1890 µM) | 8720 (≈ 1990 µM)
CCCCCCCCCCCCCCCC(=O)N[C@@H](CCC(=O)N[C@@H](CCC(=O)N[C@@H](CCC(=O)NCCCOCCOCCOCCCNC(=O)CCC(=O)NCCCOCCOCCOCCCNC(=O)CCC(=O)NCCCOCCOCCOCCCNC(=O)CCC(=O)NCCCOCCOCCOCCCNC(=O)CCC(=O)NCCCC[C@H](NC(=O)CNC(=O)[C@H](CCC(=O)O)NC(=O)[C@@H](NC(=O)C(C)(C)NC(=O)[C@@H](NC(=O)[C@H](CCCCNC(C)=O)NC(=O)[C@H](C)NC(=O)[C@H](CCCNC(=N)N)NC(=O)[C@@H](NC(=O)[C@H](CCCCN)NC(=O)[C@H](CCC(=O)O)NC(=O)[C@H](CCCNC(=N)N)NC(=O)CNC(=O)[C@H](CCC(=O)O)NC(=O)[C@H](CC(C)C)NC(C)=O)C(C)C)[C@@H](C)CC)[C@@H](C)CC)C(=O)N[C@@H](CO)C(=O)N[C@H](C(=O)N[C@@H](Cc1c[nH]c2ccccc12)C(=O)N[C@@H](CO)C(=O)NC(C)(C)C(=O)N[C@@H](CCCNC(=N)N)C(=O)N[C@@H](CCCCN)C(=O)N[C@@H](CCCCNC(C)=O)C(N)=O)[C@@H](C)O)C(=O)O)C(=O)O)C(=O)O [compound 74] (Ac-LEGREKVRAK(Ac)I[Aib]IEGK([Suc-X5])STWS[Aib]RKK(Ac)-NH2) | 0.54 | 94 | 7390 (≈ 1560 µM) | 8470 (≈ 1790 µM)

The remaining molecules from weak to strong by EC50 (RXFP1), led by results:

EC50 (RXFP1) [nM] | Emax (RXFP1) [%] | solubility [1, 2] [µg/mL] | solubility [1, 3] [µg/mL] | SMILES
2.2 | 97 | 11100 (≈ 2520 µM) | 10700 (≈ 2440 µM) | CCCCCCCCCCCCCCCC(=O)N[C@@H](CCC(=O)N[C@@H](CCC(=O)N[C@@H](CCC(=O)NCCCOCCOCCOCCCNC(=O)CCC(=O)NCCCOCCOCCOCCCNC(=O)CCC(=O)NCCCOCCOCCOCCCNC(=O)CCC(=O)NCCCC[C@H](NC(=O)CNC(=O)[C@H](CCC(=O)O)NC(=O)C(C)(C)NC(=O)C(C)(C)NC(=O)[C@@H](NC(=O)[C@H](CCCCNC(C)=O)NC(=O)[C@H](C)NC(=O)[C@H](CCCNC(=N)N)NC(=O)[C@@H](NC(=O)[C@H](CCCCN)NC(=O)[C@H](CCC(=O)O)NC(=O)[C@H](CCCNC(=N)N)NC(=O)CNC(=O)[C@H](CCC(=O)O)NC(=O)[C@H](CC(C)C)NC(C)=O)C(C)C)[C@@H](C)CC)C(=O)N[C@@H](CO)C(=O)N[C@H](C(=O)N[C@@H](Cc1c[nH]c2ccccc12)C(=O)N[C@H](CO)C(=O)N[C@@H](CCCCN)C(=O)N[C@@H](CCCNC(=N)N)C(=O)N[C@@H](C)C(=O)N[C@@H](CCCCNC(C)=O)C(N)=O)[C@@H](C)O)C(=O)O)C(=O)O)C(=O)O [compound 44] (Ac-LEGREKVRAK(Ac)I[Aib][Aib]EGK([Suc-X1])STW[dS]KRAK(Ac)-NH2)
0.19 | 97 | 8580 (≈ 1800 µM) | 9560 (≈ 2010 µM) | CCCCCCCCCCCCCCCC(=O)N[C@@H](CCC(=O)N[C@@H](CCC(=O)N[C@@H](CCC(=O)NCCCOCCOCCOCCCNC(=O)CCC(=O)NCCCOCCOCCOCCCNC(=O)CCC(=O)NCCCOCCOCCOCCCNC(=O)CCC(=O)NCCCOCCOCCOCCCNC(=O)CCC(=O)NCCCC[C@H](NC(=O)CNC(=O)[C@H](CCC(=O)O)NC(=O)C(C)(C)NC(=O)C(C)(C)NC(=O)[C@@H](NC(=O)[C@H](CCCCNC(C)=O)NC(=O)[C@H](C)NC(=O)[C@H](CCCNC(=N)N)NC(=O)[C@@H](NC(=O)[C@H](CCCNC(=N)N)NC(=O)[C@H](CCC(=O)O)NC(=O)[C@H](CCCNC(=N)N)NC(=O)CNC(=O)[C@H](CCC(=O)O)NC(=O)[C@H](CC(C)C)NC(C)=O)C(C)C)[C@@H](C)CC)C(=O)N[C@@H](CO)C(=O)N[C@H](C(=O)N[C@@H](Cc1c[nH]c2ccccc12)C(=O)N[C@@H](CO)C(=O)NC(C)(C)C(=O)N[C@@H](CCCNC(=N)N)C(=O)N[C@@H](CCCNC(=N)N)C(=O)N[C@@H](CCCCNC(C)=O)C(N)=O)[C@@H](C)O)C(=O)O)C(=O)O)C(=O)O [compound 75] (Ac-LEGRERVRAK(Ac)I[Aib][Aib]EGK([Suc-X5])STWS[Aib]RRK(Ac)-NH2)
